“And” between values parts separate entries of the source, which are not always exact repeats. Equal entries are not always repeated. “Also recorded” adds a separate entry of the source.

The subject of one test is L. major. Briefly: Cutaneous leishmaniasis mouse model: lymph node parasite burden (qPCR) and footpad swelling. The test is classed as in vivo, Balb/c mice. The settings on record: for Parasite load in popliteal lymph nodes (qPCR kDNA) vs DMSO control: PHT-39 13.75 mg/kg i.p. daily or s.c. every other day; for Parasite load in popliteal lymph nodes (qPCR kDNA) vs DMSO control / Footpad swelling vs DMSO control: AmB 8 mg/kg i.p.; for Footpad swelling vs DMSO control: day 21 post challenge. The procedure:
Female Balb/c mice, aged 6–8 weeks, were purchased from the breeding stock in Czech Republic (Animalab, Czech Republic). Animals were kept under standard conditions according to European ethical guidelines for experimental animals.
L. major metacyclic promastigotes were prepared from a five day stationary phase culture through Ficoll gradient centrifugation according to previous studies with minor changes: Briefly, a 20% and 10% Ficoll gradient were prepared in PBS and M199 media, respectively and placed in a 14 ml falcon tube. Then, 1x10^9 L. major promastigotes were loaded on top of gradient and centrifuged. Metacyclic parasites were collected between two layers. Four groups of mice (n = 6) were challenged by subcutaneous injection of 2x10^6 stationary phase metacyclic promastigotes (50 μl in PBS) into the left hind footpad. Two weeks after infectious challenge, animals were treated by i.p or intralesional (s.c) PHT-39 injection (13.75 mg/kg body weight), daily or every other day, respectively, for ten days. AmB (8 mg/kg body weight) was applied as positive control drug (i.p injection for ten days) and 5% DMSO in distilled water was applied as negative control (s.c injection for ten days) (Table 1).
Every four days after the challenge, body weight was monitored and footpad swelling changes were measured (Footpad swelling = (height + width)/2) with a metric caliper (Kroeplin, IP65, D-series, external measuring gauge).
After the 10 days course of treatment all animals were sacrificed, and popliteal lymph nodes of each infected footpad were collected for parasite load determination. Genomic DNA was extracted from the lymph nodes (DNeasy Blood and Tissue kit, Qiagen). Equal concentration of samples (125 ng) was applied to quantify leishmania kDNA with primers RV1(forward: 5’-[…]-3’) and RV2 (reverse: 5’-CCACCTG […]-3’). qPCR data was normalized using the murine house-keeping gene GAPDH amplified with primers (forward:5’[…]3’; reverse: 5’[…]3’) in parallel using Maxima SYBR green qPCR master (Thermo). qPCR was performed using Biorad CFX96 device with 95°C/ 10 min (initial denaturation), then 95°C/15s (denaturation), 60°C /30s (annealing) and 72°C/ 40s (extension) over 40 cycles. For ΔCT calculation of samples, every CT were subtracted from the same on GAPDH. Then, ΔΔCT of each group was normalized according to negative control group (DMSO).
The most significant requirement of an anti-leishmanial drug is its ability to reduce the parasite burden in the infected host. […] Briefly, four groups of 6–8 weeks Balb/c mice were challenged with 2 x 10^6 L. major promastigotes subcutaneously injected into the hind footpad. Treatment started after two weeks when a wound started to form. Two groups were treated with PHT-39 compound at doses of 13.75 mg/kg either via i.p route, daily, or s.c route, every other day for 10 days. One group received a daily dosage of AmB as a control, and another infected non-treated group was included in the study. After 10 days, popliteal lymph nodes were collected to assess parasite burden and immune response stimulation was studied in spleen cell culture supernatants.

The subject of test [1] is human hepatocyte carcinoma HepG2 cells. Briefly: Cytotoxicity assay HepG2, resazurin reduction. The test is classed as cell-based. The protocol: Mammalian cell lines (J774 and HepG2) were passaged in RPMI media supplemented with MEM, Pen-Strep (1%) and 10% FCS. Cultures were kept at 37°C incubator with 5% CO2 in filter-cap flasks.
Murine macrophage cells (J774) and human hepatocyte carcinoma HepG2 cells were seeded at 0.5x10^5 cell/well in 384 well plates in triplicate, exposed to serial dilution of compounds, dispensed using an Echo 650 acoustic dispenser (Labcyte). After incubation for 72 h at 37°C, 5% CO2, cell viability was determined using fluorescence resazurin reduction assay (λEx: 550 nm; λEm: 590 nm).

Another test concerns E. histolytica. Briefly: E. histolytica viability, ATP luminescence (Cell titer glo). The test is classed as cell-based, Entamoeba histolytica. The following applies: Entamoeba histolytica, 48 h. A digest of the protocol:
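E. histolytica strain B2-5 at 2.5x10^4 cells/ml was exposed to compound for 48 h at 37 °C under anaerobic conditions, with viability read as ATP luminescence (CellTiter-Glo). The primary screen used 25 μM in triplicate, and follow-up potency runs used 9–16-point ranges spanning 0.01–100 μM.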
On the technique in general: In ATP-based viability assays light output follows the ATP content of the culture.

The subject of a further test is Plasmodium berghei ANKA. Set-up: method as in PMID 35749989. The settings on record: cited from earlier work.
A further test has as its system Plasmodium falciparum. The arrangement: method as in PMID 35749989. The settings on record: cited from earlier work.
A further test relates to T. brucei brucei BSF. Briefly: T. brucei BSF viability, resazurin reduction. Format: cell-based, Trypanosoma brucei brucei. The settings on record: Trypanosoma brucei. On the technique in general: Alamar Blue is a resazurin reagent that responds to reducing activity.
Setting [2] is: PHT-39 13.75 mg/kg i.p. or s.c.

Regarding `C[C@@H]1[C@H](O)[C@@H](C)/C=C/C=C/C=C/C=C/C=C/C=C/C=C/[C@H](O[C@@H]2O[C@H](C)[C@@H](O)[C@H](N)[C@@H]2O)C[C@@H]2O[C@](O)(C[C@@H](O)C[C@@H](O)[C@H](O)CC[C@@H](O)C[C@@H](O)CC(=O)O[C@H]1C)C[C@H](O)[C@H]2C(=O)O` [AmB, amphotericin B, reference compound], the “Parasite load in popliteal lymph nodes (qPCR kDNA) vs DMSO control” value in the test on L. major (10 days) is on record as “reduce the parasite load significantly; also recorded: reduction of parasite load in the AmB group was significant”. Moreover, the “Footpad swelling vs DMSO control” value with L. major (setting [2]) is listed as “reduced significantly; also recorded: effectively reduced the swelling”.
As to `CC[C@@H](C)[C@H](c1nc2ccccc2n1Cc1cn(-c2ccc(C(F)(F)F)cc2)nn1)N1C(=O)c2ccccc2C1=O` [PHT-39], the Selectivity result in test [1] (HepG2 cytotoxicity vs intramacrophage L. infantum) is listed as “over 90 fold”. For the same compound, the 50% effective concentration (EC50) (in general, the concentration giving half of the maximal effect) in test [1] (Homo sapiens, HepG2, 72 h, cytotoxicity, 72 h, read-out: EC50 (CT50) HepG2) was over 100000 nM; in the test with Plasmodium falciparum (read-out: EC50 Plasmodium falciparum intraerythrocyte stages) it was 640 nM and 600 nM; with T. brucei brucei BSF (read-out: EC50 T. brucei BSF, dose response, triplicate, ± SD (Table 2) / ± SE (S3 Table)) it was 3900 ± 1700 nM. Moreover, in the test on L. major (10 days), the “Parasite load in popliteal lymph nodes (qPCR kDNA) vs DMSO control” value is on record as “did not show a significant difference; also recorded: not significantly changed”. In the test with L. major (PHT-39 13.75 mg/kg i.p. or s.c., 10 days, 13.75 mg/kg), the “Elimination of L. major infection in cutaneous leishmaniasis model” value is on record as “unable to eradicate L. major infection; also recorded: failed to eliminate the Leishmania infection”. For the same compound, the “Parasite burden in lymph nodes” value in the test with L. major (PHT-39 13.75 mg/kg s.c. every other day) is reported as “lower but insignificant parasite burden”. The “Footpad swelling vs DMSO control” value in the test with L. major (setting [2]) was “Neither of the test groups showed significant difference with the DMSO control; also recorded: did not show any significant changes”. Moreover, the viability – broadly, a read-out of living cells in per cent, often relative to untreated cells – at 2.5 µM came to 81.6 ± 12.6% with E. histolytica (read-out: Residual viability, E.histolytica (2.5 µM)) and 64.9 ± 7.25% in the test with T. brucei brucei BSF (72 h, read-out: Residual viability, T.brucei (2.5 µM), BSF, 2.5 µM, 72 h). Further, the viability at 25 µM in the test with E. histolytica (read-out: Residual viability, E.histolytica (25 µM)) was found to be 44.5 ± 9.9%; in the test on T. brucei brucei BSF (72 h, read-out: Residual viability, T.brucei (25 µM), BSF, 25 µM, 72 h), 2.85 ± 2.88%. Besides, in the test on Plasmodium berghei ANKA, the “Parasitemia and host survival, P. berghei ANKA infection model” value was “considerable decrease in parasitemia and significantly extended host survival”. The “Mitochondrial membrane potential, P. falciparum trophozoites” value in the test on Plasmodium falciparum (3 h exposure at EC50 0.64 μM) is “collapse of the mitochondrial membrane potential”.

The record behind these values is PMC10994559 (PLOS Neglected Tropical Diseases, 2024).
